Activity calls are given as the source filed them. The rule behind the calls is not given here.
Target: Trace amine-associated receptor 1 (Homo sapiens) (UniProt Q96RJ0)
Test: agonism at human TAAR1, counter-screen – cell-based, fluorescence, MedChem round 2, counter-screen for TAAR1 antagonist project, SAR follow-up (AID 1053182)
Conditions: TAAR1-expressing cells, cAMP fluorescence agonist mode

Sequence of Trace amine-associated receptor 1 (Homo sapiens) (Q96RJ0 whole entry, looked up): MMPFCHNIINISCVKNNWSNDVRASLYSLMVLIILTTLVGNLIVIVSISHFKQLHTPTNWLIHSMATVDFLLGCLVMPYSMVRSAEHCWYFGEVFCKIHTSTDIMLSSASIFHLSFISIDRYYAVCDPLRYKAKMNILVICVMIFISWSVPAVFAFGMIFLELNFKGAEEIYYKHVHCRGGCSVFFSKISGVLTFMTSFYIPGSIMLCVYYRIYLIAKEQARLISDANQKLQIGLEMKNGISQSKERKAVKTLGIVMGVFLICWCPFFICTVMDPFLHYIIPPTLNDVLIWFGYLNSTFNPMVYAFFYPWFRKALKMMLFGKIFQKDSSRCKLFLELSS

Compound | EC50
N#Cc1c(C(F)(F)F)cc(-c2ccc(Cl)cc2)nc1SCC(=O)N1CCCCCC1 | > 29.9 µM (inactive)
CC(CN1CCCC1Cc1ccccc1)C(=O)c1ccc2c(c1)OCCO2 (configuration not stated) | 0.245 µM
N#Cc1c(C(F)(F)F)cc(-c2ccc(Cl)cc2)nc1SCC(=O)N1CCCC1 | > 29.9 µM (inactive)
O=C(CCN1CCC(c2ccccc2)C1)c1ccccc1 (configuration not stated) | 0.1 µM
N#Cc1c(C(F)(F)F)cc(-c2ccc(Cl)cc2)nc1SCC(=O)Nc1ncccn1 | > 29.9 µM (inactive)
Cc1ccc(C(=O)CCN2CCC(c3ccccc3)C2)cc1 (configuration not stated) | 0.282 µM
COc1cc(C(=O)CCN2CCC(c3ccccc3)C2)cc(OC)c1OC (configuration not stated) | 0.122 µM
